From ChEMBL document CHEMBL5360544, “Design, synthesis, and biological evaluation of diaryl heterocyclic derivatives targeting tubulin polymerization with potent anticancer activities” (Eur J Med Chem, 2023)
Active and inactive are the calls of the source. The calls are words filed in the database; no cut-off is given here.

Columns and labels:
SW480 = assay: Antiproliferative activity against human SW480 cells incubated for 48 hrs by CCK-8 assay; type: functional, cell-based; details: SW480, 48 h
HCT-116 [1] = assay: Antitumor activity against human HCT-116 cells xenografted in nude mouse assessed as reduction in tumor weight at 50 mg/kg, po administered for 20 days and measured every 2 days; type: functional; parameters: scale not given: the % may be the effect or the level left; details: time 20 day
HeLa = assay: Antiproliferative activity against human HeLa cells incubated for 48 hrs by CCK-8 assay; type: functional, cell-based
[2] = Antiproliferative activity against human HEK293T cells incubated for 48 hrs by CCK-8 assay; type: toxicity, cell-based, HEK-293T
[3] = Metabolic stability in human liver microsomes assessed as half life preincubated for 2 hrs followed by NADPH regenerating system addition and measured upto 4 hrs by LC-MS method; type: ADME, Microsome; details: time < 6 hrs
HCT-116 [4] = assay: Antitumor activity against human HCT-116 cells xenografted in nude mouse assessed as reduction in tumor volume at 50 mg/kg, po administered for 20 days and measured every 2 days; type: functional; parameters: scale not given: the % may be the effect or the level left; details: time 20 day
[5] = Toxicity in mouse xenografted with human HCT-116 cells assessed as reduction in liver damage at 50 mg/kg, po administered for 20 days and measured every 2 days by H and E staining based method; type: organism-based; details: in vivo, 480 h, time 20 day
[6] = Toxicity in mouse xenografted with human HCT-116 cells assessed as reduction in body weight at 50 mg/kg, po administered for 20 days and measured every 2 days; type: organism-based; details: in vivo, 480 h, time 20 day
MDA-MB-231 = assay: Antiproliferative activity against human MDA-MB-231 cells incubated for 48 hrs by CCK-8 assay; type: functional, cell-based; details: MDA-MB-231, 48 h
HepG2 = assay: Antiproliferative activity against human HepG2 cells incubated for 48 hrs by CCK-8 assay; type: functional, cell-based; details: HepG2, 48 h
[7] = Metabolic stability in rat liver microsomes assessed as half life preincubated for 2 hrs followed by NADPH regenerating system addition and measured upto 4 hrs by LC-MS method; type: ADME, Microsome; details: time < 6 hrs
[8] = Toxicity in mouse xenografted with human HCT-116 cells assessed as reduction in kidney damage at 50 mg/kg, po administered for 20 days and measured every 2 days by H and E staining based method; type: organism-based; details: in vivo, 480 h, time 20 day
HCT-116 [9] = assay: Antiproliferative activity against human HCT-116 cells incubated for 48 hrs by CCK-8 assay; type: functional, cell-based; details: HCT-116, 48 h
HCT-116 [10] = assay: Antitumor activity against human HCT-116 cells xenografted in nude mouse assessed as reduction in tumor weight at 100 mg/kg, po administered for 20 days and measured every 2 days; type: functional, organism-based; details: time 20.0 day
Tubulin (Homo sapiens) [11] = molecular target: T1, Tubulin (Homo sapiens) (UniProt P68371+Q9H4B7+P0DPH7+P68366+Q13509+Q71U36+P04350+Q3ZCM7+P07437+P68363+Q9BQE3+Q6PEY2+Q13885+Q9BVA1+Q9BUF5); assay: Induction of microtubule depolymerization in human HCT-116 cells assessed as appearance of short microtubules at 160 nM by immunofluorescent assay; type: cell-based
HCT-116 [12] = assay: Induction of apoptosis in human HCT-116 cells assessed as necrotic cells at 0.125 uM incubated for 24 hrs by Annexin V and PI staining based flow cytometry analysis (reference value: 0.04%); type: functional
HCT-116 [13] = assay: Induction of apoptosis in human HCT-116 cells assessed as early apoptotic cells at 2 uM incubated for 24 hrs by Annexin V and PI staining based flow cytometry analysis (reference value: 0.26%); type: functional
HCT-116 [14] = assay: Induction of apoptosis in human HCT-116 cells assessed as early apoptotic cells at 0.5 uM incubated for 24 hrs by Annexin V and PI staining based flow cytometry analysis (reference value: 0.26%); type: functional
HCT-116 [15] = assay: Induction of cell cycle arrest in human HCT-116 cells assessed as increase in G2/M phase cells incubated for 48 hrs by PI staining based flow cytometry analysis; type: functional; details: dose 0.5-2 µM
HCT-116 [16] = assay: Induction of apoptosis in human HCT-116 cells assessed as early apoptotic cells at 0.125 uM incubated for 24 hrs by Annexin V and PI staining based flow cytometry analysis (reference value: 0.26%); type: functional
HCT-116 [17] = assay: Induction of apoptosis in human HCT-116 cells assessed as viable cells at 2 uM incubated for 24 hrs by Annexin V and PI staining based flow cytometry analysis (reference value: 99.63%); type: functional; details: read-out: Activity
HCT-116 [18] = assay: Induction of apoptosis in human HCT-116 cells assessed as necrotic cells at 0.5 uM incubated for 24 hrs by Annexin V and PI staining based flow cytometry analysis (reference value: 0.04%); type: functional
Tubulin (Homo sapiens) [19] = molecular target: T1, Tubulin (Homo sapiens); assay: Induction of microtubule depolymerization in human HCT-116 cells assessed as appearance of microtubules wrapped around nucleus at 160 nM by immunofluorescent assay; type: cell-based
Tubulin = Tubulin (Sus scrofa, UniProt P02554+P02550); assay: Inhibition of pig brain tubulin polymerization incubated for […] by spectrophotometric method; type: tissue-based
HCT-116 [20] = assay: Induction of apoptosis in human HCT-116 cells assessed as late apoptotic cells at 2 uM incubated for 24 hrs by Annexin V and PI staining based flow cytometry analysis (reference value: 0.07%); type: functional
HCT-116 [21] = assay: Induction of apoptosis in human HCT-116 cells assessed as late apoptotic cells at 0.125 uM incubated for 24 hrs by Annexin V and PI staining based flow cytometry analysis (reference value: 0.07%); type: functional
[22] = Toxicity in mouse xenografted with human HCT-116 cells assessed as reduction in liver damage at 50 to 100 mg/kg, po administered for 20 days and measured every 2 days by H and E staining based method; type: organism-based; details: in vivo, 480 h, dose 50-100 mg/kg, time 20 day
Tubulin (Homo sapiens) [23] = molecular target: T1, Tubulin (Homo sapiens); assay: Induction of microtubule depolymerization in human HCT-116 cells assessed as appearance of short microtubules at 40 nM by immunofluorescent assay; type: cell-based
HCT-116 [24] = assay: Antitumor activity against human HCT-116 cells xenografted in nude mouse assessed as reduction in tumor volume at 100 mg/kg, po administered for 20 days and measured every 2 days; type: functional, organism-based; details: time 20.0 day
[25] = Toxicity in mouse xenografted with human HCT-116 cells assessed as reduction in body weight at 50 to 100 mg/kg, po administered for 20 days and measured every 2 days; type: organism-based; details: in vivo, 480 h, dose 50-100 mg/kg, time 20 day
HCT-116 [26] = assay: Induction of apoptosis in human HCT-116 cells assessed as late apoptotic cells at 0.5 uM incubated for 24 hrs by Annexin V and PI staining based flow cytometry analysis (reference value: 0.07%); type: functional
HCT-116 [27] = assay: Inhibition of colony formation in human HCT-116 cells incubated with compound for 24 hrs followed by media replacement and measured after 10 days by crystal violet staining based assay; type: functional, cell-based; details: dose 0.5-2 µM
HCT-116 [28] = assay: Inhibition of colony formation in human HCT-116 cells at 2 uM incubated with compound for 24 hrs followed by media replacement and measured after 10 days by crystal violet staining based assay; type: functional
HCT-116 [29] = assay: Induction of apoptosis in human HCT-116 cells assessed as necrotic cells at 2 uM incubated for 24 hrs by Annexin V and PI staining based flow cytometry analysis (reference value: 0.04%); type: functional
HCT-116 [30] = assay: Induction of apoptosis in human HCT-116 cells assessed as viable cells at 0.5 uM incubated for 24 hrs by Annexin V and PI staining based flow cytometry analysis (reference value: 99.63%); type: functional; details: read-out: Activity
HCT-116 [31] = assay: Induction of apoptosis in human HCT-116 cells assessed as viable cells at 0.125 uM incubated for 24 hrs by Annexin V and PI staining based flow cytometry analysis (reference value: 99.63%); type: functional; details: read-out: Activity
[32] = Toxicity in mouse xenografted with human HCT-116 cells assessed as reduction in kidney damage at 50 to 100 mg/kg, po administered for 20 days and measured every 2 days by H and E staining based method; type: organism-based; details: in vivo, 480 h, dose 50-100 mg/kg, time 20 day
Tubulin (Homo sapiens) [33] = molecular target: T1, Tubulin (Homo sapiens); assay: Induction of microtubule depolymerization in human HCT-116 cells assessed as appearance of microtubules wrapped around nucleus at 40 nM by immunofluorescent assay; type: cell-based

In the case of `COc1ccc(/C=C\c2cc(OC)c(OC)c(OC)c2)cc1O` [COMBRETASTATIN A4], the IC50 (SW480) is reported as 40000 nM, the Activity (HCT-116 [1]) is reported as 28.8% and the IC50 (HeLa) is reported as 630 nM. For the same compound, the IC50 at 48 h [2] was greater than 80000 nM, the half-life [3] was 9.5 min and the Activity (HCT-116 [4]) was 31.4%. The Activity [5] was “Non-Toxic”, the Activity [6] was “Non-Toxic” and the IC50 (MDA-MB-231) was 2130 nM. For the same compound, the IC50 (HepG2) was 1360 nM, the half-life [7] was 2.3 min and the Activity [8] was “Non-Toxic”. The IC50 (HCT-116 [9]) was 2320 nM.

In the case of `COc1cc(-c2ccnn2-c2ccc(N)cc2)cc(OC)c1OC`, the Activity (HCT-116 [10]) is reported as “inactive”, the Activity (Tubulin (Homo sapiens) [11]) is reported as “Active” and the Activity (HCT-116 [12]) is reported as 2.17%. The Activity (HCT-116 [13]) was 75.68%, the Activity (HCT-116 [14]) was 61.42% and the Activity (HCT-116 [15]) was “Dose-Dependent Effect”. The Activity (HCT-116 [16]) was 46.19%, the IC50 (SW480) was 37500 nM and the viability at 2 µM (HCT-116 [17]) was 3.22%. For the same compound, the Activity (HCT-116 [1]) was 27%, the Activity (HCT-116 [18]) was 4.87% and the Activity (Tubulin (Homo sapiens) [19]) was “Active”. For the same compound, the IC50 (Tubulin) was 8400 nM, the IC50 (HeLa) was 24600 nM and the IC50 at 48 h [2] was greater than 80000 nM. The half-life [3] was 106 min, the Activity (HCT-116 [4]) was 44.1% and the Activity (HCT-116 [20]) was 19.38%. For the same compound, the IC50 (MDA-MB-231) was 11400 nM, the IC50 (HepG2) was 1540 nM and the Activity (HCT-116 [21]) was 49.45%. The Activity [22] was “Non-Toxic”, the Activity (Tubulin (Homo sapiens) [23]) was “Active” and the Activity (HCT-116 [24]) was “inactive”. For the same compound, the half-life [7] was 6.9 min, the Activity [25] was “Non-Toxic” and the Activity (HCT-116 [26]) was 28.79%. The inhibition (HCT-116 [27]) was “Dose-Dependent Effect”, the inhibition at 2 µM (HCT-116 [28]) was 100% and the Activity (HCT-116 [29]) was 1.72%. The viability at 0.5 µM (HCT-116 [30]) was 4.92%, the viability at 0.125 µM (HCT-116 [31]) was 2.2% and the Activity [32] was “Non-Toxic”. The IC50 (HCT-116 [9]) was 2650 nM and the Activity (Tubulin (Homo sapiens) [33]) was “Active”.
